Assays:
APP(C100)-Flag = target: T1, APP(C100)-Flag (Homo sapiens, UniProt P05067); experiment: Photoaffinity labelling of APP(C100)-Flag and competition; format: binding
T1 construct: APP(C100)-Flag, comprising the 99 C-terminal residues of APP plus a methionine at the N-terminus; added methionine (N)
Protocol: FIG. 1. […] The top panel is for anti-biotin staining; the middle panel is for anti-FLAG staining; and the bottom panel is an overlay of anti-biotin (red and anti-Flag green, LiCor Odyssey imaging). (E) Same samples as in D, but analyzed using an ELISA. Following crosslinking, C100Flag and N100 Flag were captured using anti-FLAG plate, and biotin incorporation was measured using streptavidin-HRP. […] Fen-B (50 μM) was crosslinked to Aβ (10 μM). Biotin labeling was measured following capture with an anti-Aβ1-16 antibody and detection with streptavidin-HRP.
Photoaffinity labelling. All experiments used the following general protocol. Samples (recombinant or synthetic peptides, cell lysates and membrane preparations) were exposed in borosilicate test tubes to ultraviolet light (350 nm) in a Rayonet Photoreactor R100 (RPR-3500 lamps, Southern New England Ultra Violet Company) in a cold room (4° C.) for 30 minutes or as otherwise noted. Crosslinked samples were analyzed by ELISA for biotin incorporation, or analyzed directly by SDS-PAGE (Criterion-XT, Bio-Rad), or after precipitation with streptavidin ultralink plus beads (Pierce). After immunblotting, proteins were detected using chemiluminesence (ECL Plus, GEHealthcare) or near-infrared fluorescence (LiCor Odyssey). Full-length APP and APP CTFs (CTF83, CTF99) were detected with CT20, a rabbit polyclonal antibody against the C-terminus of APP. Biotin was detected with an affinity-purified rabbit polyclonal antibody (Bethyl). Cell-based screens for amyloid-β modulation. Human H4 neuroglioma cells (American Type Culture Collection, ATCC) expressing wild-type APP695 protein or CTF105 fused to secreted alkaline phosphatase which is efficiently processed to APP CTFs (CTF83, CTF99) and produce high levels of amyloid-β, were used for the cell-based screens as previously described. Cells were incubated for 5-6 hours in the presence of the various compounds in Opti-Mem culture medium containing 1% fetal bovine serum. Compounds were dissolved in dimethylsulphoxide (DMSO; 0.5% final concentration) and diluted 200-fold. Media was analyzed for various amyloid-β species (40, 42 and total) using ELISAs as described herein. The EC50 values for changes in amyloid-β species were calculated by fitting sigmoid dose-response curves using nonlinear regression in Prism (GraphPad) and are shown as values±s.e.m. Statistical analysis. Data are presented as either percentage control or mean±s.e.m. Results were analyzed using Prism (Graph Pad) with t-tests or one-way analysis of variance analyses (ANOVAs) with Dunnett's post-hoc correction for comparison of multiple samples to a control. Statistical significance is shown as P,0.05 (one asterisk), P,0.01 (two asterisks) or P,0.001 (three asterisks).
The ability of a purified, recombinant Flag-tagged γ-secretase substrate derived from APP (APP(C100)-Flag, comprising the 99 C-terminal residues of APP plus a methionine at the N-terminus) to be labeled by Fen-B and Flurbi-BpB was tested.

Aβ(1-42) = Aβ(1-42) (Homo sapiens, UniProt P05067); experiment: Fluorescence titration and saturation binding of Aβ(1-42) with X-34
Protocol: Fluorescence titration and saturation binding of Aβ(1-42) with X-34. Incremental increases in fluorescence (ΔF) when Aβ(1-42) was included at the indicated total concentrations of X-34 were fitted to eq. 1.
(§1) Finally, X-34 was tested for its ability to modulate Aβ42 amounts in an APP transgenic mouse (Tg2576).

APP-NOTCH TMD cells = experiment: Aβ modulation in APP-NOTCH TMD cells; format: cell-based, human; conditions: APP-NOTCH TMD line
Protocol: (A) and (B) The sequences of wildtype (WT; A) APP and the mutated substrate (B) containing the homologous region (italic, underlined) of the NOTCH transmembrane domain (TMD) in APP where GSMs are hypothesized to bind. […] Bottom row, FT-1 ([…]) raised Aβ42 200% in APP wild-type cells (A); however, in APP-NOTCH TMD cells (B), FT-1 caused minimal changes in the Aβ42 (95%) or Aβ40 (90%) signal. Data are presented as amyloid-β percentage of control±s.e.m., n=3.
FIG. 19. Substitution of human Notch sequence in the APP transmembrane domain (TMD) changes sensitivity to modulation. (A) Site-directed mutagenesis was used to exchange the analogous region of the human Notch TMD (bold and underlined) for a section (bold and underlined) of wild-type APP (APPwt) we have shown to be labeled by GSMs. The new substrate (APP-Notch TMD) is cleaved by γ-secretase primarily after valine and alanine residues corresponding to 40 and 42 in APPwt (arrows). […] The beginning (1) N-terminal amino acid (AA) to the ending C-terminal AA is shown above each peak, with the molecular weight (m/z) below. 1-40 and 1-42 are detected as the two major species in APP-Notch TMD conditioned media. It should be noted that the mutagenesis strategy to create APPNotch TMD led to a single AA deletion relative to APPwt. The correct change in molecular weight caused by the introduced mutations were confirmed by the mass spectrum. For simplicity the peptides are referenced by their C-terminal residues relative to Aβ (40, 42, etc). Representative mass spectra are shown from multiple IP reactions (3) and duplicate spots. […] Both cell lines were treated (6 hours) with L-685,458 (10 μM), which is hypothesized to target the active site aspartate residues, media was collected, and analyzed for changes in Aβ levels. The 40 and 42 Aβ reactive species from both cell lines were inhibited by L-685,458 with equal sensitivity (no significant difference; 40 p>0.5; 42 p>0.4; t test; n=3).
To test the hypothesis that mutation of the GSM binding site in APP should alter sensitivity to GSMs, a portion of the GSM binding site in APP was exchanged with the analogous region of human NOTCH (FIGS. 18A and 18B; FIG. 19). The chimeric construct was used because the NOTCH transmembrane domain (TMD) appears resistant to GSM effects. The APP NOTCH TMD construct produced a spectrum of chimeric amyloid-β species in conditioned cell media (FIG. 19). Although the molecular weight and abundance of each chimeric peptide differed from amyloid-β peptides from APP, the main species produced from the APP-NOTCH TMD construct had identical C-termini to Ab1-40 and Ab1-42, and could be quantified by enzyme-linked immunosorbent assays (ELISAs; FIG. 19). The relative sensitivity to GSMs of APP-NOTCH TMD versus APP was assayed in stably transfected cells. […]

γ-secretase = γ-secretase (Homo sapiens, UniProt P49768); experiment: GSM activity of compounds that bind Aβ or Aβ amyloid (cell-based or cell-free γ-secretase assays, FIG. 12); conditions: two doses (10 and 100 μM)
Protocol: A literature search was performed to identify compounds reported to bind to the Aβ peptide directly or amyloid. These candidates were initially tested in cell-based assays or cell-free in vitro γ-secretase assays at two doses (10 and 100 μM).
as §1

Sequence of Aβ(1-42) (P05067 672-713 limits assumed): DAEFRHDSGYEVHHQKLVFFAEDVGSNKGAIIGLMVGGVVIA
T1 sequence (P05067 672-770 limits assumed): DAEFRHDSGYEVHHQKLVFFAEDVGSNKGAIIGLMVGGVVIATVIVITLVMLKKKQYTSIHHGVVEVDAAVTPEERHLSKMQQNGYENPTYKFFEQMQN

With `O=C(O)c1cc(C=Cc2ccc(C=Cc3ccc(O)c(C(=O)O)c3)cc2)ccc1O` [X-34, 1,4-bis(3-carboxy-4-hydroxyphenylethenyl)-benzene] the “competition for binding of APP(C100)-Flag by Fen-B and Flurbi-BpB” value (APP(C100)-Flag) was “competed”, the Kd (Aβ(1-42)) was 12.1 ± 4.7 µM and the “Aβ40 or Aβ42 concentrations” value (APP-NOTCH TMD cells) was “did not change either Aβ40 or Aβ42 concentrations”. For the same compound, the GSM activity (γ-secretase) was “Aβ42-lowering”.

Source: patent publication US20110021471A1, “REDUCING Abeta42 LEVELS AND Abeta AGGREGATION” (priority 2007, published 2011)
